From US7468457B2, “Ligand inhibitors of the RAR receptors, process for preparing same and therapeutic/cosmetic applications thereof” (Galderma Research & Development, priority 2002, dated 2008) come the findings set out here.

Molecules are shown by their SMILES.

Common to all, as to assay type: cell-based
The target in one test is T1, RAR ALPHA (Homo sapiens, UniProt P10276).
T1 sequence (P10276 183-417 limits assumed): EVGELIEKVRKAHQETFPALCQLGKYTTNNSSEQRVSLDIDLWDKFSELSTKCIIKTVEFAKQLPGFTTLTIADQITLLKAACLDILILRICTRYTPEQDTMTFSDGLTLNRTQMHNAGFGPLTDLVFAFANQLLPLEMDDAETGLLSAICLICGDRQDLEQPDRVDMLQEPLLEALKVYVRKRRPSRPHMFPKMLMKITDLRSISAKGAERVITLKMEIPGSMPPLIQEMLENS
Briefly: Transactivation test (luciferase reporter, HeLa stable transfectants), RAR alpha. To be noted: HeLa cells; for Kd: apparent Kd from Schild regression of crossed curves against reference agonist, read-out: RAR ALPHA Kd app; for IC50: inhibition at the reference agonist concentration that gives 80% activation. The method, then:
(§1) The activation of receptors with an agonist (activator) in HeLa cells leads to the expression of a reporter gene, luciferase, which, in the presence of a substrate, generates light. The activation of the receptors may thus be measured by quantifying the luminescence produced after incubating the cells in the presence of a reference agonist. The inhibitory products displace the agonist from its site, thus preventing activation of the receptor. The activity is measured by quantifying the reduction in light produced. This measurement makes it possible to determine the inhibitory activity of the compounds according to the invention.
(§2) Determination of the Kdapp:
(§3) In this study, a constant is determined which represents the affinity of the molecule for the receptor. Since this value can fluctuate depending on the basal activity and the expression of the receptor, it is referred to as the Kd apparent (KdApp).
(§4) To determine this constant, “crossed curves” of the test product against a reference agonist, 4-[2-(5,5,8,8-tetramethyl-5,6,7,8-tetrahydro-2-naphthyl)propenyl]benzoic acid, are performed in 96-well plates. The test product is used at 10 concentrations and the reference agonist at 7 concentrations. In each well, the cells are in contact with a concentration of the test product and a concentration of the reference agonist, 4-[2-(5,5,8,8-tetramethyl-5,6,7,8-tetrahydro-2-naphthyl)propenyl]benzoic acid. Measurements are also taken for the total agonist (4-[2-(5,5,8,8-tetramethyl-5,6,7,8-tetrahydro-2-naphthyl)propenyl]benzoic acid) and inverse agonist, 4-{(E)-3-[4-(4-tert-butylphenyl)-5,5,8,8-tetramethyl-5,6,7,8-tetrahydro-2-naphthyl]-3-oxopropenyl}benzoic acid, controls.
(§5) These crossed curves make it possible to determine the AC50 values (concentration at which 50% activation is observed) for the reference ligand at various concentrations of test product. These AC50 values are used to calculate the Schild regression by plotting a straight line corresponding to the Schild equation (“quantition in receptor pharmacology” Terry P. Kenakin, Receptors and Channels, 2001,7,371-385).
(§6) In the case of an antagonist, an IC50 value (concentration that inhibits 50% of the activity) is calculated by plotting the curve of the product at the concentration of the reference ligand that gives 80% activation.
(§7) The HeLa cell lines used are stable transfectants containing the plasmids ERE-βGlob-Luc-SV-Neo (reporter gene) and RAR (α, β, γ) ER-DBD-puro. These cells are inoculated into 96-well plates at a rate of 10 000 cells per well in 100 μl of DMEM medium without phenol red, and supplemented with 10% defatted calf serum. The plates are then incubated at 37° C. and 7% CO2 for 4 hours.
(§8) The various dilutions of the test products, of the reference ligand (4-[2-(5,5,8,8-tetramethyl-5,6,7,8-tetrahydro-2-naphthyl)propenyl]benzoic acid), of the 100% control (100 nM 4-[2-(5,5,8,8-tetramethyl-5,6,7,8-tetrahydro-2-naphthyl)propenyl]benzoic acid) and of the 0% control (500 nM 4-{(E)-3-[4-(4-tert-butylphenyl)-5,5,8,8-tetramethyl-5,6,7,8-tetrahydro-2-naphthyl]-3-oxopropenyl}benzoic acid) are added at a rate of 5 μl per well. The plates are then incubated for 18 hours at 37° C. and 7% CO2.
(§9) The culture medium is removed by turning over and 100 μl of a 1:1 PBS/luciferine mixture is added to each well. After 5 minutes, the plates are read using the luminescence detector.
On the technique in general: In a reporter assay the amount or activity of a reporter protein is the signal.

In another test the target is T2, RAR BETA (Homo sapiens, UniProt P10826).
T2 sequence (P10826 183-455 limits assumed): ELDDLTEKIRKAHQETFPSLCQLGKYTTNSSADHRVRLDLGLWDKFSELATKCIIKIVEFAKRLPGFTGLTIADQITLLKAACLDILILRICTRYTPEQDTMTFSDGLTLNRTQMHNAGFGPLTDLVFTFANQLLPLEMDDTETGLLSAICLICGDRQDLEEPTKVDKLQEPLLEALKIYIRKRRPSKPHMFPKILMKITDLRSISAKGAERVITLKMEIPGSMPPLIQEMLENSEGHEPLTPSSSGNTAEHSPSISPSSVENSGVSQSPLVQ
In words: Transactivation test (luciferase reporter, HeLa stable transfectants), RAR beta. To be noted: HeLa cells; for Kd: apparent Kd from Schild regression of crossed curves against reference agonist, read-out: RAR BETA Kd app; for IC50: inhibition at the reference agonist concentration that gives 80% activation. The method, then: as §1, §2, §3, §4, §5, §6, §7, §8, §9

The target in a further test is T3, RAR GAMMA (Homo sapiens, UniProt P13631).
T3 sequence (P13631 185-454 limits assumed): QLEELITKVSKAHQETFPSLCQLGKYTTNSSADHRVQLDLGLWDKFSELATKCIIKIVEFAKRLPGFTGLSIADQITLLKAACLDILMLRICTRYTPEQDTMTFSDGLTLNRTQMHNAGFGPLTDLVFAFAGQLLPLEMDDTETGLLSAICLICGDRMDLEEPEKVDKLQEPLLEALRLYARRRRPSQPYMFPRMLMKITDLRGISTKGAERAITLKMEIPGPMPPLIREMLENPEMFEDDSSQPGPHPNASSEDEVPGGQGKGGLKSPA
Briefly: Transactivation test (luciferase reporter, HeLa stable transfectants), RAR gamma. To be noted: HeLa cells; for Kd: apparent Kd from Schild regression of crossed curves against reference agonist, read-out: RAR GAMMA Kd app; for IC50: inhibition at the reference agonist concentration that gives 80% activation. The method, then:
as §1, §2, §3, §4, §5, §6, §7, §8, §9

As to `CC(C)(C)c1ccc(-c2cc(C(=O)/C=C/c3ccc(C(=O)O)cc3)cc3c2C(C)(C)CCC3(C)C)cc1` [Ex. 8, 4-{(E)-3-[4-(4-tert-Butylphenyl)-5,5,8,8-tetramethyl-5,6,7,8-tetrahydro-2-naphthyl]-3-oxopropenyl}benzoic Acid], the figures for the Kd on RAR ALPHA, at RAR BETA and on RAR GAMMA were 2 nM, 4 nM and 0.25 nM, respectively. The IC50 (in general, the midpoint of a concentration-inhibition curve) at RAR ALPHA worked out at 3.5 nM; at RAR BETA, 6.4 nM; at RAR GAMMA it was 0.625 nM.
With `Cc1ccc(-c2cc(C(O)C#Cc3ccc(C(=O)O)cc3)cc3c2C(C)(C)CCC3(C)C)cc1` (stereo not drawn) [Ex. 5, 4-[3-Hydroxy-3-(5,5,8,8-tetramethyl-4-p-tolyl-5,6,7,8-tetrahydro-2-naphthyl)-1-propynyl]benzoic Acid], the Kd was 4000 nM on RAR ALPHA, 60 nM at RAR BETA and 15 nM at RAR GAMMA. The IC50 at RAR ALPHA came to 7000 nM; on RAR BETA, 96 nM; at RAR GAMMA it was 37.5 nM.
For the compound `Cc1ccc(-c2cc(C(O)/C=C/c3ccc(C(=O)O)cc3)cc3c2C(C)(C)CCC3(C)C)cc1` (stereo not drawn) [Ex. 9, 4-[(E)-3-Hydroxy-3-(5,5,8,8-tetramethyl-4-p-tolyl-5,6,7,8-tetrahydro-2-naphthyl)propenyl]benzoic Acid], the Kd on RAR ALPHA came out at 250 nM; at RAR BETA, 500 nM; on RAR GAMMA, 30 nM. Further, the IC50 is 437 nM on RAR ALPHA, 800 nM at RAR BETA and 75 nM on RAR GAMMA.
For `Cc1ccc(-c2cc(C(=O)/C=C/c3ccc(C(=O)O)cc3)cc3c2C(C)(C)CCC3(C)C)cc1` [Ex. 7], the Kd was 1 nM on RAR ALPHA, 0.25 nM on RAR BETA and 1 nM on RAR GAMMA. In addition, the IC50 at RAR ALPHA came to 1.75 nM; on RAR BETA, 0.4 nM; on RAR GAMMA it was 2.5 nM.
